Series [1] relates to Human immunodeficiency virus 1. Description: Antiviral against R5 tropic HIV1 Bal infected in human CEMx174 5.25M7 cells assessed as inhibition of viral replication. Format: functional, organism-based. The following applies: Human immunodeficiency virus 1, Bal.
Series [2] is described as follows: Cytotoxicity against human CEMx174 5.25M7. The following applies: CEMx174 5.25M7 cells.
Series [3] in a line: Selectivity ratio of CC50 for human CEMx174 5.25M7 cells to IC50 for HIV1 Bal infected in CEMx174 5.25M7 cells. The following applies: read-out: Ratio CC50/IC50. The format is ADME, cell-based.
Series [4] is described as follows: Terminal half life in Sprague-Dawley rat at 1 mg/kg, iv. The following applies: in vivo, read-out: beta t1/2 (converted). Format: ADME, organism-based. The arrangement: dose 1 mg/kg, route intravenous.
Series [5] can be described thus: Terminal half life in Sprague-Dawley rat at 5 mg/kg, po. Format: ADME, organism-based. Also on record: dose 5 mg/kg, route oral. The following applies: in vivo, read-out: beta t1/2 (converted).
A short description of series [6]: AUC (0 to 12 hrs) in Sprague-Dawley rat at 1 mg/kg, iv. Format: ADME, organism-based. Also on record: time < 12 hr, dose 1 mg/kg, route intravenous. Particulars: plasma.
The nature of series [7]: AUC (0 to 12 hrs) in Sprague-Dawley rat at 5 mg/kg, po. Particulars: plasma. The arrangement: time < 12 hr, dose 5 mg/kg, route oral. Format: ADME, organism-based.
A short description of series [8]: Oral bioavailability in Sprague-Dawley rat at 5 mg/kg. The format is ADME, organism-based. The following applies: in vivo.
In series [9] the target is Voltage-gated inwardly rectifying potassium channel KCNH2 (Homo sapiens, UniProt Q12809). Briefly: Inhibition of human Erg expressed in HEK293 cells by whole cell patch clamp assay. The format is cell-based. (In patch-clamp work, channel activity is measured electrically.)
A further series relates to hERG. Description: Selectivity ratio of IC50 for human Erg to IC50 for HIV1 Bal infected in human CEMx174 5.25 cells. Format: ADME, cell-based. Particulars: HIV1 Bal infected CEMx174 5.25 cells, read-out: Ratio IC50.
Series [10] can be described thus: Solubility of the compound in 10 mM phosphate sodium buffer at pH 7.4 at 25 degC. Format: physicochemical.
Series [11] has as its system Human immunodeficiency virus 1. Briefly: Antiviral activity against HIV1. The format is functional, organism-based.

Each structure is given as a SMILES string.

Voltage-gated inwardly rectifying potassium channel KCNH2, sequence (Q12809 whole entry): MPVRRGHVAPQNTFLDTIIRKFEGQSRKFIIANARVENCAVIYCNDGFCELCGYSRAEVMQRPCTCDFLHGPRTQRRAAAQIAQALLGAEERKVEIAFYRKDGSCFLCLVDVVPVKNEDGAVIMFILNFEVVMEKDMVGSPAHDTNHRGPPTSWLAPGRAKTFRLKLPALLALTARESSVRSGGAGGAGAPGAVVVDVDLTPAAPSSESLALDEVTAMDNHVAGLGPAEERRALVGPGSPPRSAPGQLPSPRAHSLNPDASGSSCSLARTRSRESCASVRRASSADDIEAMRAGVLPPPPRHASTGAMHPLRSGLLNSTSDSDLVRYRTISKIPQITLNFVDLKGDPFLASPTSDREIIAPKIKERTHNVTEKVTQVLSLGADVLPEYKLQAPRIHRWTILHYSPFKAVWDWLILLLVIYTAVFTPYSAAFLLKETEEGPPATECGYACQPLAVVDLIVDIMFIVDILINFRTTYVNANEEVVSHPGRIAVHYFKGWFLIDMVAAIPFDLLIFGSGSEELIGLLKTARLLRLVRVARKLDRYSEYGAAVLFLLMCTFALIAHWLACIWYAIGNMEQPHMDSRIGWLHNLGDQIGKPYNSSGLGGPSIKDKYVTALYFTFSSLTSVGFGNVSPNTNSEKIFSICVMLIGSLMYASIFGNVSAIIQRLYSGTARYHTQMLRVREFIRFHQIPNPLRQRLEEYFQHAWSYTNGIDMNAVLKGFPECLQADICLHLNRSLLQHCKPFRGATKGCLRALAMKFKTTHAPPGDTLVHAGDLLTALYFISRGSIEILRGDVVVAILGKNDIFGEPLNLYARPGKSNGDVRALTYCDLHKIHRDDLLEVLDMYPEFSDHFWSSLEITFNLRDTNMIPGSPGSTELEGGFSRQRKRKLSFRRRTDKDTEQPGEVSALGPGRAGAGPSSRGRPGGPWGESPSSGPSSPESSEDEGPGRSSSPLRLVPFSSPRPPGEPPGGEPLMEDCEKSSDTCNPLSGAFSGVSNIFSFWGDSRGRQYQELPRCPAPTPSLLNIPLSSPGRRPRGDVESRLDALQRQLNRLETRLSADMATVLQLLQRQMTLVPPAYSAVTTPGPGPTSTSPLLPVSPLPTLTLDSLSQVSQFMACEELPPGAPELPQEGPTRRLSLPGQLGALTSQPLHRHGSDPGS

As usually defined, the IC50 is the midpoint of a concentration-inhibition curve. One may read the CC50 as the concentration that lowers cell viability or growth by half. A low value points to greater toxicity to the cells. As to `CC(=O)N1CCC(C(=O)N(CCCN2CCN(Cc3ccc(Cl)cc3)CC2)c2ccc(C)c(Cl)c2)CC1`, the IC50 in series [1] was 0.00656 µM. Also, in series [2], the CC50 stood at 37.6 µM. Also, the selectivity ratio in series [3] was 5730.
The matching figures for `CCN(Cc1ccccc1)C(=O)C1CCN(CCCN(C(=O)C2CCN(C(C)=O)CC2)c2ccc(C)c(Cl)c2)CC1`: 0.0599 µM, 83.9 µM and 1400.
On to `CC(=O)N1CCC(C(=O)N(CCCN2CCC(CNC(=O)c3cnccn3)CC2)c2ccc(C)c(Cl)c2)CC1`, for which the IC50 in series [1] is 0.0203 µM. This compound also returned a CC50 in [2] greater than 52.4 µM. Also, the selectivity ratio in series [3] was greater than 2580.
On the same counts, the results for `CC(=O)N1CCC(C(=O)N(CCCN2CCC(CNC(=O)c3ccsc3)CC2)c2ccc(C)c(Cl)c2)CC1` are 0.0875 µM, greater than 51.9 µM and greater than 593.
Consider `CC(=O)N1CCC(C(=O)N(CCCN2CCC(CNc3cc(C)ccn3)CC2)c2ccc(C)c(Cl)c2)CC1`, for which the IC50 in [1] stood at 1.83 µM. In addition, in series [2], half-maximal cytotoxicity (CC50) was put at 17.9 µM. For the same compound, the selectivity ratio in series [3] is 10.
With `CC(=O)N1CCC(C(=O)N(CCCN2CCC(CNc3ncccn3)CC2)c2ccc(C)c(Cl)c2)CC1`, in [1], the IC50 was 0.0102 µM. Further, in series [2], the CC50 was greater than 55.1 µM. Also, the selectivity ratio in series [3] was greater than 5330.
As to `CC(=O)N1CCC(C(=O)N(CCCN2CCC(Oc3ccccc3)CC2)c2ccc(C)c(Cl)c2)CC1`, the IC50 in [1] came out at 0.0523 µM. In series [2], this compound had a CC50 greater than 56.6 µM. In [3], the selectivity ratio is greater than 1080.
The matching figures for `CC(=O)N1CCC(C(=O)N(CCCN2CCN(Cc3ccccc3)CC2)c2ccc(C)c(Cl)c2)CC1`: 0.0149 µM, 101 µM and 6800.
On the same counts, the results for `CC(=O)N1CCC(C(=O)N(CCCN2CCN(C(=O)c3ccccc3)CC2)c2ccc(C)c(Cl)c2)CC1` are 0.147 µM, 97.8 µM and 663.
Turning to `CC(=O)N1CCC(C(=O)N(CCCN2CCN(Cc3cnc(Cl)s3)CC2)c2ccc(C)c(Cl)c2)CC1`, the IC50 in series [1] amounted to 0.0116 µM. This compound had a CC50 in series [2] greater than 52.4 µM. In series [3], the selectivity ratio was greater than 4510.
In the case of `CC(=O)N1CCC(C(=O)N(CCCN2CCN(Cc3ccncc3)CC2)c2ccc(C)c(Cl)c2)CC1`, the IC50 in [1] turned out to be 0.00907 µM. Besides, in series [2], the CC50 is greater than 56.7 µM. Also, the selectivity ratio in [3] was greater than 6150.
The matching figures for `CC(=O)N1CCC(C(=O)N(CCCN2CCN(Cc3cccnc3)CC2)c2ccc(C)c(Cl)c2)CC1`: 0.0327 µM, greater than 56.7 µM and greater than 1740.
On the same counts, the results for `CC(=O)N1CCC(C(=O)N(CCCN2CCN(Cc3ccc(Cl)nc3)CC2)c2ccc(C)c(Cl)c2)CC1` are 0.00363 µM, greater than 53.1 µM and greater than 14500.
Broadly, the AUC(0-t) is exposure summed from dosing to a finite time, without extrapolation to infinity. The bioavailability is the share of a dose that reaches the circulation, judged against a reference dose that is usually intravenous. Read a low bioavailability as poor availability. As a reminder, the solubility is the concentration that dissolves in the medium under given conditions. Read a low solubility as little dissolved substance. As for `CC(=O)N1CCC(C(=O)N(CCCN2CCN(Cc3ccc(F)cc3)CC2)c2ccc(C)c(Cl)c2)CC1.Cl`, the IC50 was 0.00617 µM in [1] and 1.82 µM in series [9]. In addition, in series [2], the CC50 was greater than 100 µM. Also, the selectivity ratio in [3] was greater than 16200; in the series on hERG, 295. Further, the values for the half-life in series [4] and in [5] were 0.59 h and 0.76 h, respectively. For the same compound, the values for the AUC(0-t) at 12 h in series [6] and in [7] were 209 ng·h/mL and 587 ng·h/mL, respectively. Moreover, the bioavailability in series [8] came to 56%. The same compound gave a solubility in series [10] of 25000 µg/mL.
Consider `CC(=O)N1CCC(C(=O)N(CCCN2CCN(Cc3ccc(S(C)(=O)=O)cc3)CC2)c2ccc(C)c(Cl)c2)CC1`, for which, in series [1], the IC50 is 0.00399 µM. The same compound yielded a CC50 in series [2] greater than 49.3 µM. In series [3], the selectivity ratio is greater than 12100.
For `CC(=O)N1CCC(C(=O)N(CCCN2CCN(c3ccccn3)CC2)c2ccc(C)c(Cl)c2)CC1`, the IC50 in [1] is 0.0563 µM. The same compound registered a CC50 in series [2] greater than 58.3 µM. The selectivity ratio in [3] was greater than 1040.
As for `CC(=O)N1CCC(C(=O)N(CCCN2CCN(Cc3ccc(C#N)cc3)CC2)c2ccc(C)c(Cl)c2)CC1`, the IC50 in [1] worked out at 0.00901 µM. In [2], this compound yielded a CC50 greater than 100 µM. In addition, in [3], the selectivity ratio is greater than 11100.
The matching figures for `CC(=O)N1CCC(C(=O)N(CCCN2CCN(Cc3ccc(C(F)(F)F)cc3)CC2)c2ccc(C)c(Cl)c2)CC1`: 0.00185 µM, 30.5 µM and 16500.
`CC(=O)N1CCC(C(=O)N(CCCN2CCC(Cc3ccc(C(N)=O)cc3)CC2)c2ccc(C)c(Cl)c2)CC1.Cl`: in [1], the IC50 turned out to be 0.00248 µM. In [2], this compound registered a CC50 greater than 100 µM. In addition, in [3], the selectivity ratio was greater than 40300. In addition, the results for the half-life in series [4] and in [5] were 2.25 h and 4.25 h, respectively. The figures for the AUC(0-t) at 12 h in series [6] and in series [7] were 328 ng·h/mL and 22.7 ng·h/mL, respectively. In [8], this compound gave a bioavailability of 1.4%. The same compound gave a solubility in [10] of 2000 µg/mL.
The term EC50 denotes the concentration giving half of the maximal effect. As for `CCN(C(=O)Cc1ccccc1)C1CCN(CCCN(C(=O)C2CCN(C(C)=O)CC2)c2ccc(C)c(Cl)c2)CC1.Cl`, the IC50 in series [1] was 0.00523 µM. Half-maximal cytotoxicity in series [2] (CC50) was put at 36.2 µM. Besides, the selectivity ratio in [3] was found to be 6920. In [10], this compound showed a solubility of less than 2000 µg/mL. Further, the EC50 in series [11] worked out at 0.0025 µM.
On to `CC(=O)N1CCC(C(=O)N(CCCN2CC3CN(C(=O)c4c(C)ncnc4C)CC3C2)c2ccc(C)c(Cl)c2)CC1` (configuration not stated), for which the EC50 in series [11] was 0.0027 µM.

These data come from ChEMBL document CHEMBL2016501, “Design, synthesis, and biological activity of novel 1,4-disubstituted piperidine/piperazine derivatives as CCR5 antagonist-based HIV-1 entry inhibitors” (Bioorg Med Chem Lett, 2012).
